The values that follow come from patent publication US9024018B2, “3-substituted-8-substituted-3H-imidazo[5,1-d][1,2,3,5]tetrazin-4-one compounds and their use” (Pharminox Limited, priority 2009, dated 2015).

SMILES strings stand for the structures.

Common to all, as to format: cell-based
In one experiment the test system is SNB19M. The experiment is described as follows: MTT assay for 7-day toxicity, SNB19M glioma cells (stably transfected with MGMT, MGMT+). Particulars: Glioma cell, 168 h, 7 day MTT assay, glioma line SNB19M. In short, it runs like this: (§1)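 Cells in RPMI 1640 with 10% FBS and 400 μg/mL G418 were seeded at 650 cells/well, attached overnight, then exposed 7 days at 37 °C to compound at final 0.5–1000 μM (≥4 wells each). Viability read by MTT against a time-zero plate.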
In general terms: Tetrazolium assays rely on reduction of a dye to a coloured formazan, in cell work by metabolically active cells.

The next experiment relates to U373V. Description: MTT assay for 7-day toxicity, U373V glioma cells (vector control, MGMT-). Particulars: Glioma cell, 168 h, 7 day MTT assay, glioma line U373V. An outline of the steps: as §1
The next experiment relates to SNB19V. Description: MTT assay for 7-day toxicity, SNB19V glioma cells (vector control, MGMT-). Particulars: Glioma cell, 168 h, 7 day MTT assay, glioma line SNB19V. An outline of the steps:
as §1

In another experiment the test system is U373M. Description: MTT assay for 7-day toxicity, U373M glioma cells (stably transfected with MGMT, MGMT+). Particulars: Glioma cell, 168 h, 7 day MTT assay, glioma line U373M. An outline of the steps: as §1

As for `Cn1nnc2c(-c3nc4ccccc4s3)ncn2c1=O` [WW-058, 8-(Benzo[d]thiazol-2-yl)-3-methylimidazo[5,1-d][1,2,3,5]tetrazin-4(3H)-one], the GI50 – broadly, the concentration at which growth is held to half of that of the control – in the experiment with SNB19M is less than 70 µM; in the experiment on U373V, less than 75 µM; with SNB19V, less than 45 µM; in the experiment with U373M it was less than 60 µM.

For the compound `Cn1nnc2c(-c3nc4ccccc4[nH]3)ncn2c1=O` [WW-062, 8-(1H-Benzo[d]imidazol-2-yl)-3-methylimidazo[5,1-d][1,2,3,5]tetrazin-4(3H)-one], the GI50 was less than 70 µM in the experiment with SNB19M, less than 75 µM in the experiment with U373V, less than 45 µM in the experiment with SNB19V and less than 60 µM in the experiment on U373M.

Turning to `C#CCn1nnc2c(-c3nc4ccccc4[nH]3)ncn2c1=O` [WW-063, 8-(1H-Benzo[d]imidazol-2-yl)-3-(prop-2-ynyl)imidazo[5,1-d][1,2,3,5]tetrazin-4(3H)-one], the GI50 with SNB19M is less than 70 µM; in the experiment with U373V it was less than 75 µM; in the experiment with SNB19V it was less than 45 µM; with U373M, less than 60 µM.
